Data taken from patent US20240327787A1, “CULTURE MEDIUM, COATING MATRIX AND METHOD FOR EXPANDING MIDBRAIN DOPAMINERGIC PROGENITOR CELLS” (NUWACELL BIOTECHNOLOGIES CO., LTD., priority 2022, published 2024).
Where a name gives a salt, the structure may show the parent alone.

System: imDAPs
Experiment: imDAP maturation, cell morphology and adhesion (bright-field)
Format: cell-based, human
Details: 10 μM Y27632; coating 1 μg/cm^2 for each; day 7
Protocol: were produced according to the method described in CN201910169525.0, and expanded as described in Example 10. The expanded […] were seeded on VTN-coated (1 μg/cm^2) plates at a density of 5×10^5 cells/cm^2 (Day 0), and cultured in the maturation medium ([…]) supplemented with 1 μM IWR1. MM-P used in Example 11 contained the following components: NeurobasalTM medium, 1% (v/v) Glutamax, 0.5 mM Db-cAMP sodium salt, 200 μM ascorbic acid, 20 ng/ml BDNF, 20 ng/ml GDNF, 1 ng/ml TGF-β3, 10 μM DAPT, hPLT (0.5%, 1%, 2%). MM-H used in Example 11 contained the following components: NeurobasalTM medium, 1% (v/v) Glutamax, 0.5 mM Db-cAMP sodium salt, 200 μM ascorbic acid, 20 ng/ml BDNF, 20 ng/ml GDNF, 1 ng/ml TGF-β3, […], HhPLT (0.5%, 1%, 2%). MM-B used in Example 11 contained the following components: Neurobasal, 1% (v/v) Glutamax, 0.5 mM Db-cAMP sodium salt, 200 μM ascorbic acid, 20 ng/ml BDNF, 20 ng/ml GDNF, 1 ng/ml TGF-β 3, 10 μM DAPT, 2% (v/v) B27 (50×) (as control). The above HhPLT was produced from hPLT as follows. The hPLT was centrifuged at 3000 g for 30 min at 4° C. to obtain the supernatant, which was heated to 56° C. for 30 min. […] Cells were collected and counted by Vi-cell cytometer. The cells were analyzed by RT-qPCR for EN1, LMX1A, FOXA2, NURR1, SOX6 and TH gene expression. […]

## C[C@@H](N)[C@H]1CC[C@H](C(=O)Nc2ccncc2)CC1 [Y27632, (R)-(+)-trans-4-(1-aminoethyl)-N-(4-pyridyl) cyclohexanecarboxamide dihydrochloride]
  cell adhesion and growth in maturation media supplemented with Y27632 (FIG. 8A): could promote cell adhesion at a certain degree
